Experimental data as given in US20090062122A1, “Cotton Growth Regulator” (FMC Corporation, priority 2006, published 2009).

Key:
Type in all cases: in vivo
[1] = test system: Bollworm (Heliothis zea); test: % bolls damaged by bollworm at harvest; conditions: 15% open boll application, 0.006 lb ai/a, 1 replicate
Experimental: (§1) The trial was performed on cotton, variety D&PL 555. The formulated test compounds were diluted to the appropriate concentrations with water to which a crop oil concentrate (1% to 2% v/v) or a non-ionic surfactant (0.25% v/v) was added. The application of the test composition as a cotton plant growth regulator was performed using pressurized, over-the-top spray equipment consisting of a research scale boom sprayer. Deposit of the test composition was primarily to the top of the cotton plants, minimizing spray deposition to lower branches, leaves and fruit. The finished spray volume was 10 gallons per acre, with sprayer nozzle design, orientation and nozzle pressures chosen to prevent spray drift. Applications were made at first sign of cotton boll opening and at 15%, 20% and 40% open bolls. […]
(§2) Percent desiccation, percent defoliation, percent terminal control and percent open bolls were evaluated at 7 and 14 days after application (DAA) of the test composition. […]
(§3) Bollworm (Heliothis zea) and stinkbug (Euschistus servus) insect control was measured by examining the bolls of 100 cotton plants, 50 cotton plants in two representative locations with in the treatment plot, for injury caused by either bollworms or by stinkbugs. The percent damage was calculated by dividing the number of damaged bolls by the total number of bolls on the plants multiplied by 100. […]

[2] = test system: Fall Armyworms (Spodoptera frugiperda); test: Number of fall armyworms on cotton plants; conditions: 15% open boll application; 0.004 lb ai/a; 2 DAA; 3 replicates; insects per plant
Experimental: (§4) The trial was performed on cotton, variety D&PL 555. The formulated test compounds were diluted to the appropriate concentrations with water to which a crop oil concentrate (1% to 2% v/v) or a non-ionic surfactant (0.25% v/v) was added. The application of the test composition as a cotton plant growth regulator was performed using pressurized, over-the-top spray equipment consisting of a research scale boom sprayer. Deposit of the test composition was primarily to the top of the cotton plants, minimizing spray deposition to lower branches, leaves and fruit. The finished spray volume was 10 gallons per acre, with sprayer nozzle design, orientation and nozzle pressures chosen to prevent spray drift. Applications were made at first sign of cotton boll opening and at 15%, 20% and 40% open bolls.
The experimental design used randomized plots with 1 to 4 treatment rates of test composition and from 1 to 10 replications depending on the test (sees tables below). […]
as §2
The presence of fall armyworms (Spodoptera frugiperda) was determined by examining 20 cotton plants within each of 3 replicates of the treatment plots for fall armyworm. The number of insects per plant was calculated by dividing the total number of insects found by 60. […]

[3] = test system: cotton, variety D&PL 555; test: % desiccation of cotton leaves, field trial
Experimental: as §4
(§5) The experimental design used randomized plots with 1 to 4 treatment rates of test composition and from 1 to 10 replications depending on the test (sees tables below). The size of each experimental plot was about 15 m^2. Testing was performed in Texas, North Carolina, Mississippi and Georgia.
(§6) Percent desiccation, percent defoliation, percent terminal control and percent open bolls were evaluated at 7 and 14 days after application (DAA) of the test composition. Inspection of cotton plants for insect control of armyworm larvae was performed at 2 DAA and insect damage to bolls was performed at the time of harvest
Desiccation refers to leaves or portions of leaves dried to debris following tissue death. […] An evaluation of the condition of leaves in the untreated check plots were observed. Then the test plots were individually evaluated. The percent of all leaves completely or partially desiccated by the test application were recorded, based upon live leaves and leaf debris within the test plot relative to foliage present in the untreated plot.
(§7) The results, shown as the mean of the indicated number of replications, were compared with results observed in the same trials with an untreated control.

[4] = test system: Brown Stinkbug (Euschistus servus); test: % bolls damaged by brown stinkbug at harvest; conditions: 15% open boll application, 0.006 lb ai/a, 1 replicate
Experimental: as §1, §2, §3

[5] = test system: cotton, variety D&PL 555; test: % terminal control of cotton plants, field trial
Experimental: as §4, §5, §6
Terminal control refers to crop response to the top-most vertical bud and shoots growth. Percent terminal control estimates the proportion of these upper-most growth structures desiccated per 100 cotton plants. Fifty cotton plants in two representative locations within a treatment plot were chosen to determine percent control. Each terminal of the 50 plants in the 2 locations was evaluated, and the total number desiccated per 100 plants was recorded as percent terminal control.
as §7

[6] = 20% open boll application, 0.002 lb ai/a, 14 DAA, 2 replicates
[7] = 20% open boll application, 0.004 lb ai/a, 14 DAA, 2 replicates
[8] = 20% open boll application, 0.006 lb ai/a, 14 DAA, 2 replicates
[9] = 20% open boll application, 0.008 lb ai/a, 14 DAA, 2 replicates

CCOC(=O)C(Cl)Cc1cc(-n2nc(C)n(C(F)F)c2=O)c(F)cc1Cl (centres unmarked) [carfentrazone-ethyl, ethyl 2-chloro-3-[2-chloro-5-(4-difluoromethyl-3-methyl-5-oxo-4,5-dihydro-[1,2,4]-triazol-1-yl)-4-fluorophenyl]propionate] was tested, and the “% Bolls Damaged by Bollworm (Heliothis zea)” value [1] was 1.75%, the “Number of insects (Fall Armyworms, Spodoptera frugiperda)” value [2] was 0 and the “% Desiccation” value ([3]; 15% open boll application, 0.004 lb ai/a, 14 DAA, 10 replicates) was 29%. For the same compound, the “% Desiccation” value ([3]; 15% open boll application, 0.006 lb ai/a, 14 DAA, 10 replicates) was 33%, the “% Desiccation” value ([3]; 15% open boll application, 0.008 lb ai/a, 14 DAA, 10 replicates) was 37% and the “% Desiccation” value ([3]; 15% open boll application, 0.01 lb ai/a, 14 DAA, 10 replicates) was 38%. The “% Desiccation” value ([3]; 20% open boll application, 0.002 lb ai/a, 7 DAA, 3 replicates) was 8%, the “% Desiccation” value [3, 6] was 13% and the “% Desiccation” value ([3]; 20% open boll application, 0.004 lb ai/a, 7 DAA, 3 replicates) was 17%. The “% Desiccation” value [3, 7] was 23%, the “% Desiccation” value ([3]; 20% open boll application, 0.006 lb ai/a, 7 DAA, 3 replicates) was 21% and the “% Desiccation” value [3, 8] was 22%. For the same compound, the “% Desiccation” value ([3]; 20% open boll application, 0.008 lb ai/a, 7 DAA, 3 replicates) was 24%, the “% Desiccation” value [3, 9] was 22% and the “% Desiccation” value ([3]; 40% open boll application, 0.004 lb ai/a, 7 DAA, 1 replicate) was 6%. For the same compound, the “% Desiccation” value ([3]; 40% open boll application, 0.006 lb ai/a, 7 DAA, 1 replicate) was 5%, the “% Desiccation” value ([3]; 40% open boll application, 0.008 lb ai/a, 7 DAA, 1 replicate) was 9% and the “% Desiccation” value ([3]; first open boll application, 0.002 lb ai/a, 7 DAA, 4 replicates) was 15%. For the same compound, the “% Desiccation” value ([3]; first open boll application, 0.002 lb ai/a, 14 DAA, 4 replicates) was 18%, the “% Desiccation” value ([3]; first open boll application, 0.004 lb ai/a, 7 DAA, 4 replicates) was 25% and the “% Desiccation” value ([3]; first open boll application, 0.004 lb ai/a, 14 DAA, 4 replicates) was 25%. The “% Desiccation” value ([3]; first open boll application, 0.006 lb ai/a, 7 DAA, 4 replicates) was 28%, the “% Desiccation” value ([3]; first open boll application, 0.006 lb ai/a, 14 DAA, 4 replicates) was 28% and the “% Desiccation” value ([3]; first open boll application, 0.008 lb ai/a, 7 DAA, 4 replicates) was 33%. For the same compound, the “% Desiccation” value ([3]; first open boll application, 0.008 lb ai/a, 14 DAA, 4 replicates) was 32%, the “% Bolls Damaged by Brown Stinkbug (Euschistus servus)” value [4] was 2.25% and the “% Terminal Control” value ([5]; 15% open boll application, 0.004 lb ai/a, 14 DAA, 9 replicates) was 63%. For the same compound, the “% Terminal Control” value ([5]; 15% open boll application, 0.006 lb ai/a, 14 DAA, 9 replicates) was 74%, the “% Terminal Control” value ([5]; 15% open boll application, 0.008 lb ai/a, 14 DAA, 9 replicates) was 79% and the “% Terminal Control” value ([5]; 15% open boll application, 0.01 lb ai/a, 14 DAA, 9 replicates) was 82%. The “% Terminal Control” value ([5]; 20% open boll application, 0.002 lb ai/a, 7 DAA, 2 replicates) was 50%, the “% Terminal Control” value [5, 6] was 49% and the “% Terminal Control” value ([5]; 20% open boll application, 0.004 lb ai/a, 7 DAA, 2 replicates) was 67%. The “% Terminal Control” value [5, 7] was 64%, the “% Terminal Control” value ([5]; 20% open boll application, 0.006 lb ai/a, 7 DAA, 2 replicates) was 66% and the “% Terminal Control” value [5, 8] was 64%. For the same compound, the “% Terminal Control” value ([5]; 20% open boll application, 0.008 lb ai/a, 7 DAA, 2 replicates) was 60% and the “% Terminal Control” value [5, 9] was 63%.
